Experimental data from patent US10781183B2, “Small molecule inducers of reactive oxygen species and inhibitors of mitochondrial activity” (The Regents of the University of Michigan, priority 2016, dated 2020).
Like-named read-outs stand apart in the source and are kept apart here.

What was measured:
Panc-1 cells = test: MTT cytotoxicity assay, Panc-1; type: cell-based; settings: three independent experiments
MiaPaCa-2 cells = test: Bru-seq analysis for nascent RNA synthesis; type: cell-based
Description: A bromouridine labeled RNA sequencing (Bru-seq) technique was used to better characterize molecular mechanisms of these novel agents. Bru-seq is able to capture real-time synthesis of the nascent RNA, so as to provide information on global gene transcription without interference by RNA stability or biased gene selection (Paulsen et al., 2014, Paulsen et al., 2013). […] Profiling of all genes with >1.5-fold change in expression upon treatment of QD232 or QD325 identified NRF2-mediated oxidative stress response and unfolded protein response (UPR) as key pathways implicated in drug action (FIG. 8A).
Bru-seq analysis was performed as previously reported (Paulsen et al., 2014). Briefly, 4×10^6 MiaPaCa-2 cells were placed in 10 cm dishes on Day 1. On Day 2, cells were treated with DMSO, QD232 or QD325 for 4 h. Bromouridine was added into the media to label newly synthesized nascent RNA in the last 30 min of treatment to a final concentration of 2 mM. Cells were then collected in TRIZOL and total RNA was isolated. Bromouridine containing RNA population was further isolated and sent for sequencing. Sequencing reads were mapped to the HG19 reference genome. Pre-ranked gene lists were generated for each treatment through ranking genes by fold changes in gene synthesis levels compared with control, and analyzed with GSEA (Broad Institute, MA) (Subramanian et al., 2005, Mootha et al., 2003)

In the case of `O=C1C(Nc2ccc(-c3ccccc3)cc2)=CC(=O)c2ncncc21` [QD325, 6-([1,1′-biphenyl]-4-ylamino)quinazoline-5,8-dione], the IC50 (Panc-1 cells; Homo sapiens, PANC-1, Table 2, Mean ± SD, read-out: IC 50 Panc-1) is reported as 400 ± 100 nM, the IC50 (Panc-1 cells; Table 1, 72 h, Mean ± SD) is reported as less than 1000 nM and the “apoptosis signaling (IPA analysis)” value (MiaPaCa-2 cells; 4 h, QD232 3 times IC50, QD325 5 times IC50 (FIG. 4)) is reported as “significant activation of apoptosis signaling”. For the same molecule, the “nascent RNA synthesis of mitochondrial genome” value (MiaPaCa-2 cells; 4 h, QD232 at 6.9 μM, QD325 at 5.0 μM (FIG. 10A)) was “inhibited”, the “transcription of DDIT3 and HSPA5” value (MiaPaCa-2 cells; 4 h treatment, dose dependently (FIG. 8C)) was “significantly increased” and the “synthesis of NQO1 and HMOX1 RNAs” value (MiaPaCa-2 cells; 4 h treatment, QD232 at 1, 2 or 3 times IC50, QD325 at 1, 2 or 5 times IC50 (FIG. 8B)) was “dose-dependently upregulated”.
